Like-named read-outs stand apart in the source and are kept apart here.
Columns and labels:
OXA-48 = biological target: T1, OXA-48 (Klebsiella pneumoniae, UniProt Q6XEC0); assay: Enzyme inhibition assay against purified OXA-48 with nitrocefin as substrate; assay type: biochemical; settings: for percent inhibition against OXA-48 / inhibition at 50 µM: nitrocefin substrate; for percent inhibition against OXA-48: 50 µM
T1 construct: made in house; host or cells: E. coli BL21(DE3)
Protocol: The inhibitory activity of compounds against the purified OXA-48 was tested on a BioTek HTS reader. The reactions were conducted in 0.1 M phosphate buffer (pH 7.0) supplemented with 50 mM NaHCO3 at 25°C with a final assay volume of 100 μL. The concentrations of enzyme and substrate were 12 nM and 200 μM, respectively. The initial reaction rates in the absence and presence of the compound were monitored at 495 nm in triplicate. The inhibitor concentration causing a 50% decrease in enzyme activity (IC50) was determined by plotting the percent inhibition against the log10 of the inhibitor concentration and fitting the data in a dose–response-inhibition model using GraphPad Prism 7.0.
Quercetin is a member of the flavonoid class with diverse structures obtained from nature, some of which have been used for the treatment of infectious diseases in traditional medical systems ([Farhadi et al., 2019]). To investigate whether quercetin and other flavonoids are OXA-48 inhibitors, the enzyme inhibition assays were conducted on a BioTek HTS reader using nitrocefin as a substrate. The concentrations of enzyme and substrate were 12 nM and 200 μM, respectively. The initial hydrolysis rate of nitrocefin was monitored at 495 nm. The percentage inhibition is defined as the enzyme activity in the absence of inhibitor (100%) minus the remaining activity in the presence of inhibitor.

[1] = test system: E.coli BW25113 ∆acrA∆bamB (OXA-48); assay type: cell-based
Protocol: (§1) The recombinant plasmid containing the Pbla promoter and OXA-48 constructed above was then transformed into BW25113, BW25113 ∆acrA, BW25113 ∆bamB, and BW25113 ∆acrA∆bamB. The above strains were used to study the minimum inhibitory concentration (MIC). Antibiotic susceptibility tests were performed by the microdilution method following Clinical and Laboratory Standards Institute (CLSI) criteria ([CLSI, 2015]). Four E. coli strains expressing OXA-48 were used to assess the inhibitors. The susceptibility to piperacillin/imipenem combined with the compound at a concentration of 16 or 64 μg/mL was determined. […] Each measurement was conducted in triplicate. The fractional inhibitory concentration index (FICI) was determined according to the following formula: FICI = MIC (QT) in combination/MIC (QT) alone + MIC (PIP) in combination/MIC (PIP) alone. The drug interactions are defined as synergistic if the FICI is ≤0.5, indifferent if the FICI is >0.5 and ≤4.0, and antagonistic if the FICI is >4.0.
(§2) To investigate whether the compounds could restore the antimicrobial activity of β-lactam, the MICs of β-lactam antibiotics against resistant Gram-negative bacteria in the absence and presence of compounds (fisetin, 3′,4′,7-trihydroxyflavone, luteolin or quercetin) were determined by using published guidelines described by CLSI ([CLSI, 2015]). Specifically, we used OXA-48 producing strains E. coli BW25113, BW25113 ∆acrA, BW25113 ∆bamB, and BW25113 ∆acrA∆bamB as resistant Gram-negative bacteria. […] Imipenem, a carbapenem antibiotic, was applied at increasing concentrations ranging from 0.03 μg/mL to 4 μg/mL. The compounds were tested at 64 and 16 μg/mL.

[2] = test system: E.coli BW25113 ∆acrA (OXA-48); assay type: cell-based
Protocol: as §1, §2

[3] = test system: E.coli BW25113 ∆bamB (OXA-48); assay type: cell-based
Protocol: as §1, §2

E.coli BW25113 (OXA-48) = assay type: cell-based
Protocol: as §1, §2

[4] = test system: E. coli BW25113 ∆acrA∆bamB (OXA-48); assay: Mouse systemic infection model; assay type: in vivo, Kunming mice; settings: 10 mg/kg each, intravenous, 1 h post infection; organs 24 h post-infection; vs untreated group
[5] = read-out: percent inhibition against OXA-48, at 50 μM compound

T1 sequence (Q6XEC0 23-265 limits assumed): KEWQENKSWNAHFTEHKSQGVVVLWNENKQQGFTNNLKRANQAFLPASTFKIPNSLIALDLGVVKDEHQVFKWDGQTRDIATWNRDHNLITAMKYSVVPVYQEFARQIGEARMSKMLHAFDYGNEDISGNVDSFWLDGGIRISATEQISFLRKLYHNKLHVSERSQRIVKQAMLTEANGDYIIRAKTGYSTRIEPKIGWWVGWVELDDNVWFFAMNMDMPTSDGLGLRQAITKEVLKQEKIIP

For `O=c1cc(-c2ccc(O)c(O)c2)oc2cc(O)ccc12` [3′,4′,7-trihydroxyflavone], the IC50 (OXA-48) was 1.89 ± 0.11 µM, the “percent inhibition against OXA-48” value (OXA-48; at 50 μM compound) was “more than 50%” and the “percent inhibition against OXA-48” value (OXA-48; at 50 μM compound, listed as 3',4',7-trihydroxyflavone) was 80%. For the same compound, the “reduction in the piperacillin MIC” value ([1]; compound at 64 μg/mL) was 8 fold.

For `O=c1cc(-c2ccc(O)cc2)oc2cc(O)cc(O)c12` [Apigenin], the IC50 (OXA-48) was 3.64 ± 0.24 µM, the “percent inhibition against OXA-48” value (OXA-48; at 50 μM compound) was 77% and the “percent inhibition against OXA-48” value (OXA-48; at 50 μM compound, listed as apigenin) was “more than 50%”.

Compound `O=C(O)[C@H]1O[C@@H](Oc2cc3oc(-c4ccccc4)cc(=O)c3c(O)c2O)[C@H](O)[C@@H](O)[C@@H]1O` [Baicalin] has an inhibition at 50 µM (OXA-48; [5]) of 25%.

In the case of `O=c1cc(-c2ccccc2)oc2cc(O)cc(O)c12` [Chrysin], the IC50 (OXA-48) is reported as 108 ± 11 µM, the “percent inhibition against OXA-48” value (OXA-48; at 50 μM compound) is reported as 8% and the “percent inhibition against OXA-48” value (OXA-48; at 50 μM compound, listed as chrysin) is reported as “less than 20%”.

For `COc1ccc(-c2cc(=O)c3c(O)cc(O[C@@H]4O[C@H](CO[C@@H]5O[C@@H](C)[C@H](O)[C@@H](O)[C@H]5O)[C@@H](O)[C@H](O)[C@H]4O)cc3o2)cc1O` [Diosmin], the “percent inhibition against OXA-48” value (OXA-48; at 50 μM compound) was 11% and the inhibition at 50 µM (OXA-48; [5]) was under 20%.

`O=c1c(O)c(-c2ccccc2)oc2cc(O)cc(O)c12` [Galangin] was tested, and the IC50 (OXA-48) was 216 ± 15 µM, the “percent inhibition against OXA-48” value (OXA-48; at 50 μM compound) was 3% and the “percent inhibition against OXA-48” value (OXA-48; at 50 μM compound, listed as galangin) was “less than 20%”.

For `COc1ccc(-c2oc3c(CC=C(C)C)c(O[C@@H]4O[C@H](CO)[C@@H](O)[C@H](O)[C@H]4O)cc(O)c3c(=O)c2O[C@@H]2O[C@@H](C)[C@H](O)[C@@H](O)[C@H]2O)cc1` [Icariin], the “percent inhibition against OXA-48” value (OXA-48; at 50 μM compound) was 0.3% and the “percent inhibition against OXA-48” value (OXA-48; at 50 μM compound, listed as icarlin) was “less than 20%”.

In the case of `C[C@@H](O)[C@H]1C(=O)N2C(C(=O)O)=C(SCCN=CN)C[C@H]12` [Imipenem], the “Antibiotic MIC” value ([1]; inhibitor at 16 mg/L) is reported as 4 µg/mL, the “Antibiotic MIC” value ([1]; inhibitor at 64 mg/L) is reported as 4 µg/mL and the “Antibiotic MIC” value ([2]; inhibitor at 16 mg/L) is reported as 4 µg/mL. The “Antibiotic MIC” value ([2]; inhibitor at 64 mg/L) was 4 µg/mL, the “Antibiotic MIC” value ([3]; inhibitor at 16 mg/L) was 4 µg/mL and the “Antibiotic MIC” value ([3]; inhibitor at 64 mg/L) was 4 µg/mL. For the same compound, the “Antibiotic MIC” value (E.coli BW25113 (OXA-48); inhibitor at 16 mg/L) was 4 µg/mL and the “Antibiotic MIC” value (E.coli BW25113 (OXA-48); inhibitor at 64 mg/L) was 4 µg/mL.

With `O=c1c(O[C@@H]2O[C@H](CO)[C@@H](O)[C@H](O)[C@H]2O)c(-c2ccc(O)c(O)c2)oc2cc(O)cc(O)c12` [Isoquercitrin] the “percent inhibition against OXA-48” value (OXA-48; at 50 μM compound) was 61%, the IC50 (OXA-48; purified OXA-48 12 nM, nitrocefin 200 μM, 0.1 M phosphate buffer pH 7.0, 50 mM NaHCO3, 25°C, read-out: IC50 against OXA-48) was 11.5 ± 1.22 µM and the inhibition at 50 µM (OXA-48; [5]) was over 50%.

For `O=c1c(O)c(-c2ccc(O)cc2)oc2cc(O)cc(O)c12` [Kaempferol], the IC50 (OXA-48) was 4.54 ± 0.05 µM, the “percent inhibition against OXA-48” value (OXA-48; at 50 μM compound) was 76% and the “percent inhibition against OXA-48” value (OXA-48; at 50 μM compound, listed as kaempferol) was “more than 50%”.

Work on `O=C1C[C@@H](c2ccc(O)cc2)Oc2cc(O)cc(O)c21` [Naringenin] yielded an IC50 (OXA-48) of 68.1 ± 4.12 µM and an inhibition at 50 µM (OXA-48; at 50 μM compound, read-out: percent inhibition against OXA-48) of 27%.

For `CCN1CCN(C(=O)N[C@@H](C(=O)N[C@@H]2C(=O)N3[C@@H]2SC(C)(C)[C@@H]3C(=O)O)c2ccccc2)C(=O)C1=O` [Piperacillin], the “bacterial load in spleen and liver” value [4] was “did not show a significant reduction of bacterial load”, the “increase in the piperacillin susceptibility” value ([1]; codeletion of bamB and acrA vs wild type) was 8 fold and the “Antibiotic MIC” value ([1]; inhibitor at 16 mg/L) was 512 µg/mL. For the same compound, the “Antibiotic MIC” value ([1]; inhibitor at 64 mg/L) was 512 µg/mL, the “Antibiotic MIC” value ([2]; inhibitor at 16 mg/L) was 4096 µg/mL and the “Antibiotic MIC” value ([2]; inhibitor at 64 mg/L) was 4096 µg/mL. The “increase in the piperacillin susceptibility” value ([3]; deletion of bamB alone vs wild type) was 4 fold, the “Antibiotic MIC” value ([3]; inhibitor at 16 mg/L) was 1024 µg/mL and the “Antibiotic MIC” value ([3]; inhibitor at 64 mg/L) was 1024 µg/mL. For the same compound, the “Antibiotic MIC” value (E.coli BW25113 (OXA-48); inhibitor at 16 mg/L) was 4096 µg/mL and the “Antibiotic MIC” value (E.coli BW25113 (OXA-48); inhibitor at 64 mg/L) was 4096 µg/mL.

For `C[C@@H]1O[C@@H](OC[C@H]2O[C@@H](Oc3c(-c4ccc(O)c(O)c4)oc4cc(O)cc(O)c4c3=O)[C@H](O)[C@@H](O)[C@@H]2O)[C@H](O)[C@H](O)[C@H]1O` [Rutin], the “percent inhibition against OXA-48” value (OXA-48; at 50 μM compound) was 9% and the “inhibitory activity against OXA-48 (in words)” value (OXA-48; larger group at position 3) was “no inhibitory activity”.

With `COc1ccc(-c2cc(=O)c3c(OC)c(OC)c(OC)c(OC)c3o2)cc1` [Tangeretin] the inhibition at 50 µM (OXA-48; [5]) was 7%.

In the case of `O=C1c2c(O)cc(O)cc2OC(c2ccc(O)c(O)c2)C1O` (centres unmarked) [Taxifolin], the IC50 (OXA-48) is reported as 3.22 ± 0.23 µM and the “percent inhibition against OXA-48” value (OXA-48; at 50 μM compound) is reported as 76%.
